Measurements: the METLIN SMRT retention time set (Domingo-Almenara et al. 2019)

Assay: gradient 5% acetonitrile 3 min, to 50% in 2 min, to 85% in 15 min, held 3 min, 100 µL/min
Conditions: column: Zorbax Extend-C18 2.1 x 50 mm; eluents: water / acetonitrile, 0.1% formic acid
Procedure, shortened: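 Retention times of pure standards were taken from adduct peaks that were selected by computer and manually inspected. Over 3 months, mixtures of ~100 molecules were run by HPLC–quadrupole time-of-flight mass spectrometry in positive and negative ionization mode. The Zorbax Extend-C18 column (2.1 × 50 mm, 1.8 μm) ran at 100 μL/min in water and acetonitrile, each containing 0.1% formic acid, with 40 μL dead volume and 900 μL dwell volume.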

| Structure (SMILES) | RP-LC retention time [s] |
| --- | --- |
| O=C(NCc1cnoc1-c1ccc(F)cc1)c1ccccc1F | 866 |
| COc1ccc(C(=O)NC2CCN(c3cc(-c4ccc(OC)cc4)[nH]n3)C2)cc1 (stereo unspecified) | 706 |
| CCc1ccc(N2CC(c3noc(-c4ccc(OC)cc4)n3)CC2=O)cc1 (stereo unspecified) | 1080 |
| Cc1ccccc1-c1noc(C2CC(=O)N(c3ccc4c(c3)OCO4)C2)n1 (stereo unspecified) | 718 |
| N#Cc1c(N)nc(SCC(=O)c2ccc(Br)cc2)c(C#N)c1-c1ccccc1 | 997 |
| Cn1nc(C(=O)N2CCCC2)c2c1CCN(C(=O)CCC(=O)NC1CCCCC1)C2 | 664 |
| O=C(Cc1ccc2c(c1)OCO2)Nc1nc2c(s1)Cc1ccccc1-2 | 878 |
| CCOC(=O)CCNC(=O)N1[C@H]2CC[C@@H]1c1cnc(-c3ccc(F)cc3)nc1C2 | 797 |
| NS(=O)(=O)c1ccc(NC2(C(=O)O)CCCC2)cc1 | 1010 |
| Cc1nc(-c2noc(-c3ccncc3)n2)cn1CC(=O)Nc1cccc(F)c1 | 833 |
| Cc1ccc2nc(C(=O)N3CCC(C)CC3)cc(Nc3ccc(N(C)C)cc3)c2c1 | 745 |
| COc1ccc(CC(=O)Nc2cc(-c3cccnc3)no2)cc1 | 708 |
| Cc1nn(C)c(C)c1S(=O)(=O)N1CCC(c2noc(-c3ccccc3)n2)C1 (stereo unspecified) | 856 |
| CC1(C)CC(=O)C2=C(C1)N(Cc1cccnc1)C(=O)C2(NC(=O)C1CCCCC1)C(F)(F)F (stereo unspecified) | 659 |
| CN(C)c1ccc(CNC(=O)[C@@]23CCCC[C@H]2N(CCc2ccccc2)C(=O)CC3)cc1 | 634 |
| O=C(CCCN1CCC2(CC1)C(=O)N(Cc1cccc(F)c1)CN2c1ccccc1)c1ccc(F)cc1 | 981 |
| O=C(NC1CCCCCC1)C1CCCN(c2ncnc3c2nc2n3CCCCC2)C1 (stereo unspecified) | 816 |
| CCOc1ccc(CC(=O)N2CCCC2c2nc(-c3ccccc3Cl)no2)cc1OCC (stereo unspecified) | 1050 |
| O=c1n(Cc2cccc(F)c2)nc2c(S(=O)(=O)N3CCCCC3)cccn12 | 872 |
| CC1CS(=O)(=O)N(c2cccc(C(=O)N3CCN(c4ccccc4F)CC3)c2)C1=O (stereo unspecified) | 790 |
| CSc1cccc(NC(=O)C2CCN(S(=O)(=O)c3cn(C(C)C)cn3)CC2)c1 | 812 |
| CCOc1ncccc1C(=O)Nc1cccc(-c2csc3nc(C)cc(=O)n23)c1 | 774 |

| Structure (SMILES) | RP-LC retention time [s] |
| --- | --- |
| COc1ccc(Cl)c2c(=O)c3c([nH]c12)CCN(CC(=O)Nc1ccccc1F)C3 | 604 |
| Cn1ncc2c(N3CCCCC3)nc(C(=O)N3CCN(c4ccc(Cl)cc4)CC3)nc21 | 1020 |
| Cc1ccccc1C(=O)N1CCC2(C1)C(=O)Nc1ccccc12 (stereo unspecified) | 703 |
| Cc1ccc(-c2cn3c(CC(=O)N4CCc5ccccc5C4)csc3n2)cc1C | 879 |
| COc1ccc(Cn2ccc3ccc(C(=O)NO)cc32)cc1 | 782 |
| COc1ccc(C(=O)N(CC(=O)N(Cc2ccco2)CC2CCCO2)C(C)(C)C)cc1 (stereo unspecified) | 862 |
| O=C(NCCc1ccc(Cl)cc1)c1csc(C(=O)N2CCCC2)n1 | 894 |
| O=C(Nc1ccc2ncnc(N3CCCC3)c2c1)c1cncc(Br)c1 | 639 |
| COc1cccc(C(=O)CSc2ccc(-n3cccn3)nn2)c1 | 847 |
| O=C(NCc1ccccn1)c1c(OCC2CC2)cc(=O)n2c1CCCCC2 | 586 |
| COCCN1C(=O)CCc2cc(NS(=O)(=O)c3ccc(F)c(C)c3)ccc21 | 800 |
| O=C(Cn1cccc(-c2nc(-c3ccc(Br)cc3)no2)c1=O)NCc1ccc(F)cc1 | 952 |
| O=C(NCc1ccc(F)cc1)C1CCN(C(=O)c2ncn3c2COC(c2ccc(Cl)cc2)C3)CC1 (stereo unspecified) | 842 |
| CCOC(=O)c1c(S(=O)(=O)N2CCC(C(=O)Nc3ccc(CC)cc3)CC2)c(C)n(C)c1C | 943 |
| O=C(CCn1nnc2cc(-c3noc(-c4ccc(F)cc4)n3)ccc21)N1CCCC1 | 903 |
| CCN(CC)C(=O)COc1cc(C(F)(F)F)c2c(C)nn(-c3ccc(C)cc3)c2n1 | 1250 |
| CCOc1ccc(C2c3[nH]c4ccccc4c3CCN2C(=O)Cc2cccs2)cc1 (stereo unspecified) | 1190 |
| C[C@H]1CN(C(=O)C2CCCC2)C[C@@H]1c1nc(-c2ccccc2)no1 | 1060 |
| CC(=O)c1ccc(NC(=O)Cn2c(=O)nc(NC3CCCC3)c3ccccc32)cc1 | 635 |
| O=C(NCCc1ccccc1)N1CCC(c2noc(-c3ccccc3)n2)C1 (stereo unspecified) | 914 |
| O=C(CSc1nnc(C2COc3ccccc3O2)o1)NCc1ccco1 (stereo unspecified) | 648 |
| Cc1ccc(Cl)cc1NC(=O)N(C)CC1CCOCC1 | 761 |

| Structure (SMILES) | RP-LC retention time [s] |
| --- | --- |
| Cc1nc(-c2noc(-c3ccncc3)n2)cn1CC(=O)NCc1cccs1 | 640 |
| Cc1cccc(NC(=O)C2CCCN(S(=O)(=O)c3c[nH]c(C(=O)N4CCCC4)c3)C2)c1C (stereo unspecified) | 802 |
| CCOc1ccc(-n2c(N(CC)CC)nc3cc(C(=O)OC)ccc3c2=O)cc1 | 1230 |
| Cc1nc2cc(-c3noc(/C=C/c4ccccc4)n3)ccc2o1 | 1140 |
| CCS(=O)(=O)c1ccc(CC(=O)Nc2ccc(F)cc2F)cc1 | 711 |
| CC1CCCCN1CCNC(=O)CN1CCc2ccccc2C1C(=O)N1CCCCC1 (stereo unspecified) | 617 |
| Clc1cc(Cl)cc(-c2ccc(CNCc3ccco3)o2)c1 | 784 |
| CCCn1cc(CCNS(=O)(=O)c2ccccc2C(F)(F)F)c2cccnc21 | 904 |
| Cc1nc(Cn2cccc2C(=O)Nc2cccc(Br)c2)no1 | 936 |
| CN(C)CCNc1ccc(-c2nc(-c3ccc(F)cc3)no2)cn1 | 668 |
| CCN1C(=O)c2cccc3c(NC(=O)c4c(F)cccc4F)ccc1c23 | 739 |
| Cc1oc(-c2[nH]ncc2C(=O)N2CCCC2)cc1S(=O)(=O)NCc1cc(F)ccc1F | 700 |
| Cc1ccc(-c2cc(C(F)(F)F)on2)cc1S(=O)(=O)N1CCC(C)CC1 | 1280 |
| CCOC(=O)c1ccc(NC(=O)N2CCCC2c2cc(CC)no2)cc1 (stereo unspecified) | 856 |
| CCC(C)NC(=O)NC1CCN(C2=NS(=O)(=O)C(c3ccc(C)c(C)c3)=C2C)CC1 (stereo unspecified) | 888 |
| CCc1cccc(NS(=O)(=O)c2cc3n(c2)CCN(CC)C3=O)c1 | 762 |
| O=C(Cc1c[nH]c2ccccc12)N1CCN2CCS(=O)(=O)N(C3CC3)C(=O)C2C1 (stereo unspecified) | 743 |
| COc1ccc(NC(=O)N2CCC3(CC2)NC(=O)c2ccc(Cl)cc2N3C)c(C)c1 | 787 |
| CCCn1cnc2cc(CNC(=O)c3ccc(OC)c(OC)c3)ccc21 | 606 |
| O=C(COc1ccccc1F)N1CCC(Oc2nc3ccccc3s2)CC1 | 986 |
| CCCOc1ccc(CNC(=O)c2nc3cccnc3n(CC)c2=O)cc1 | 918 |
| COCCNC(=O)c1nnc(-c2ccc(S(=O)(=O)N3CCOCC3)cc2)o1 | 668 |
